{"source": "patent US20230220331A1", "about": "“TEMPORARY TREATMENT MEDIUM, TREATMENT KIT, EMBRYOGENESIS ARREST INHIBITOR, EMBRYOGENESIS ARREST INHIBITORY METHOD, DEVELOPMENTAL ENGINEERING PRODUCT PREPARATION METHOD, TRANSPLANTATION METHOD, THERAPEUTIC METHOD, AND DEVELOPMENTAL ENGINEERING PRODUCT” (priority 2020, published 2023)", "assay_type_in_all_cases": "cell-based", "key": {"[1]": {"test_system": "Pronuclear stage embryos of C57BL/6J", "assay": "Knockout mouse production by electroporation (TAKE), Mk-3 gene (Treatment Example 1)", "procedure": "The TAKE was carried out according to the method described in Patent Document 2.\n1. By 3 hours before TAKE, Y-27632-added mWM medium (Y-27632 final concentration 10 μM, an example of the “temporary treatment medium” of this example) and Y-27632-free mWM medium (an example of “normal medium” of this example) were dropped on 35 mm Petri dish in 5 drops, respectively, to prepare the drops covered with paraffin oil.\n2. Pronuclear stage embryos were collected from the drops, placed in Y-27632-added mWM medium, and cultured for about 30 minutes to 1 hour (temporary treatment).\n3. After that, TAKE was performed. At the time of this TAKE, as described above, the pronuclear stage embryo, after washing, was transferred to a genome editing solution for TAKE or an Opti-MEM solution. The same applied to the following processing.\n4. After TAKE, the embryos were placed in Y-27632-added mWM medium (temporary treatment) and cultured under 37° C., 5% CO2, and ([…]) conditions until the next day (1 hour or more and within 12 hours).\n5. If necessary, culture was continued or embryo transfer was performed in Y-free mWM medium.\nAccording to a typical method, in the afternoon when female mice and rats were mated with males with vasoligation and confirmed to be plugged, about 10 each were transplanted into the left and right oviducts or uterus of plug-confirmed mature female mice and rats. […]"}, "[2]": {"test_system": "inbred rat F344 embryos", "assay": "Development to blastocyst after two electroporations (Treatment Example 5)", "conditions": "treated before and after electroporation", "procedure": "1. At least 3 hours before TAKE, 5 drops of Y-27632-added KSOM AA medium (Y-27632 final concentration 10 μM, an example of the “temporary treatment medium” of this example) were placed on a 35 mm Petri dish and drops covered with paraffin oil.\n2. Pronuclear stage embryos were collected, placed in Y-27632-added KSOM AA medium, and cultured for about 30 minutes to 1 hour (temporary treatment).\n3. After that, the first TAKE was performed.\n4. After TAKE, the embryos were placed in Y-27632-added KSOM AA medium and cultured under 37° C., 5% CO2, and 5% O2 conditions for 30 minutes and more and up to 12 hours (temporary treatment).\n5. Then, they were placed in Y-27632-free KSOM AA medium (an example of the “normal medium” of this example), and cultured under 37° C., 5% CO2, and 5% O2 conditions until the second TAKE.\n6. The next day, the embryos that had become two cells were separated, and about 20 to 22 hours after egg collection, they were placed in Y-27632-added KSOM AA medium again and cultured for about 30 minutes to 1 hour (temporary treatment).\n7. After that, the second TAKE was performed.\n8. […]\nIn these figures, the development rate of the two-cell stage was calculated as the ratio of the two-cell stage embryo to the pronuclear stage embryo, and the development rate of the blastocyst stage was calculated as the ratio of the blastocyst stage to the two-cell stage embryo."}, "[3]": {"test_system": "pig fertilized embryos that had undergone in vitro maturation and in vitro fertilization with frozen semen", "assay": "Development of electroporated pig IVM/IVF embryos (Treatment Example 5)", "procedure": "1. On the day before TAKE, 5 drops of Y-27632-added PZM-5 medium (Y-27632 final concentration 10 μM, an example of the “temporary treatment medium” of this example) was dropped on a 35 mm Petri dish to prepare a drop coated with paraffin oil. In the drop of this example, 20 μL of medium was added dropwise, 1 mL of oil was added, then 20 μL of medium was added again, and the mixture was completely covered with oil. This drop produced twice as many as the TAKE.\n2. IVF was performed based on a method common to those skilled in the art.\n3. On the day after fertilization, IVF embryos were placed in Y-27632-added PZM-5 medium and cultured for about 30 minutes to 1 hour (temporary treatment).\n4. After that, TAKE was performed.\n5. The embryos were returned to Y-27632-free PZM-5 medium (an example of the “normal medium” of this example) and cultured under the conditions of 39° C., 5% CO2, and 5% O2.\n6. If necessary, sampling, or the like, was performed at the development stage. If the culture is to be continued until the blastocyst stage, the drops containing Y-27632-free PZM-5 medium and PBM medium was made in the same way as the step of “1.” at four days after insemination.\n7. […]\nIn addition, the effect of the temporary treatment medium of this example was measured on pig fertilized embryos that had undergone in vitro maturation and in vitro fertilization with frozen semen."}}}
{"smiles": "C[C@@H](N)[C@H]1CC[C@H](C(=O)Nc2ccncc2)CC1", "note": "[Y-27632, trans-4-[(1R)-1-Aminoethyl]-N-4-pyrid inylcyclohexanecarboxamide]", "values": [{"measurement": "birth rate increased", "setting": "[1]; C57BL/6J embryos cultured in Y-27632 medium before and after electroporation, Mk-3 knockout with two gRNAs, versus without Y-27632", "value": "about 5 times"}, {"measurement": "efficiency of non-homologous end joining (NHEJ)", "setting": "[1]; C57BL/6J, Mk-3 knockout, Y-27632 before and after electroporation", "value": "did not change"}, {"measurement": "2-cell stage embryos developed until the blastocyst stage (proportion)", "setting": "[2]", "value": "74 of 103"}, {"measurement": "embryos developed to the blastocyst (%)", "setting": "[2]; ratio of blastocysts to 2-cell embryos", "value": 71.8, "unit": "%"}, {"measurement": "2-cell stage embryos developed into late blastocysts (proportion)", "setting": "[3]", "value": "35 out of 123"}]}
